PubChem BioAssay (NCI)
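Interpolation was linear, between the two tested concentrations surrounding the appropriate level; five concentrations were tested over 48 hours in 96-well plates. GI50 = concentration required for 50% inhibition of growth. TGI denotes the concentration required for complete inhibition of growth.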

How the values were obtained:
Test in all cases: NCI-60 cell line screen, 48 h; in the data active means GI50 below about 0.43 µM; inactive means the rest
[1] = tested on: SK-MEL-5 melanoma
[2] = tested on: OVCAR-8 ovarian
[3] = tested on: SK-MEL-2 melanoma
[4] = tested on: EKVX NSCLC
[5] = tested on: SF-539 CNS
[6] = tested on: NCI-H23 lung
[7] = tested on: RPMI-8226 leukemia
[8] = tested on: SN12C renal
[9] = tested on: NCI-H460 lung
[10] = tested on: DU-145 prostate
[11] = tested on: UO-31 renal
[12] = tested on: SK-MEL-28 melanoma
[13] = tested on: CCRF-CEM leukemia
[14] = tested on: RXF 393 renal
[15] = tested on: HT29 colon
[16] = tested on: HCC-2998 colon
[17] = tested on: SNB-75 CNS
[18] = tested on: NCI/ADR-RES ovarian
[19] = tested on: LOX IMVI melanoma
[20] = tested on: CAKI-1 renal
[21] = tested on: HL-60(TB) leukemia
[22] = tested on: IGROV1 ovarian
[23] = tested on: OVCAR-4 ovarian
[24] = tested on: MCF7 breast
[25] = tested on: SW-620 colon
[26] = tested on: M14 melanoma
[27] = tested on: OVCAR-3 ovarian
[28] = tested on: SK-OV-3 ovarian
[29] = tested on: MOLT-4 leukemia
[30] = tested on: UACC-62 melanoma
[31] = tested on: PC-3 prostate
[32] = tested on: U251 CNS
[33] = tested on: HS 578T breast
[34] = tested on: SF-295 CNS
[35] = tested on: A498 renal
[36] = tested on: ACHN renal
[37] = tested on: HCT-116 colon
[38] = tested on: MDA-MB-231 breast
[39] = tested on: NCI-H226 lung
[40] = tested on: MALME-3M melanoma
[41] = tested on: MDA-MB-435
[42] = tested on: KM12 colon
[43] = tested on: UACC-257 melanoma
[44] = tested on: K-562 leukemia
[45] = tested on: BT-549 breast
[46] = tested on: SR leukemia
[47] = tested on: SNB-19 CNS
[48] = tested on: HOP-92 NSCLC
[49] = tested on: T-47D breast
[50] = tested on: TK-10 renal
[51] = tested on: SF-268 CNS
[52] = tested on: HOP-62 NSCLC
[53] = tested on: A549 NSCLC
[54] = tested on: 786-0 renal
[55] = tested on: HCT-15 colon
[56] = tested on: OVCAR-5 ovarian
[57] = tested on: NCI-H522 lung
[58] = tested on: COLO 205 colon

O=S1CCN(Cc2ccc(-c3ccc4ncnc(Nc5ccc(OCc6cccc(F)c6)c(Cl)c5)c4c3)o2)CC1
> 22.8 µM: TGI [7] | TGI [42]
17.5 µM: TGI [46]
> 16.3 µM: TGI [50]
> 23.6 µM: TGI [14]
10.8 µM: TGI [15]
22.4 µM: TGI [48]
> 21.6 µM: TGI [33]
18.3 µM: TGI [49]
> 16.1 µM: TGI [38]
24.8 µM: TGI [13]
24.9 µM: TGI [11]
15.8 µM: TGI [57]
13.5 µM: TGI [58]
> 20.1 µM: TGI [29]
> 18.6 µM: TGI [26]
10.5 µM: TGI [19]
> 16.7 µM: TGI [35]
9.97 µM: TGI [3]
10.6 µM: TGI [30]
> 23.9 µM: TGI [45]
14.7 µM: TGI [16]
> 20.9 µM: TGI [5]
> 25 µM: TGI [2] | TGI [4] | TGI [6] | TGI [8] | TGI [9] | TGI [10] | TGI [12] | TGI [17] | TGI [18] | TGI [20] | TGI [23] | TGI [24] | TGI [25] | TGI [27] | TGI [28] | TGI [31] | TGI [32] | TGI [36] | TGI [37] | TGI [39] | TGI [41] | TGI [44] | TGI [47] | TGI [51] | TGI [52] | TGI [53] | TGI [54] | TGI [55] | TGI [56]
23.2 µM: TGI [40]
15.7 µM: TGI [21]
> 20.5 µM: TGI [43]
active: GI50 [4] 0.0304 µM | GI50 [20] 0.041 µM | GI50 [22] 0.226 µM | GI50 [28] 0.00587 µM | GI50 [36] 0.082 µM | GI50 [50] 0.00776 µM
5.29 µM: TGI [22]
6.42 µM: TGI [1]
> 19 µM: TGI [34]
inactive: GI50 [1] 3.09 µM | GI50 [2] 7.68 µM | GI50 [3] 4.41 µM | GI50 [5] 6.54 µM | GI50 [6] 8.42 µM | GI50 [7] 6.65 µM | GI50 [8] 7.77 µM | GI50 [9] 7.62 µM | GI50 [10] 4.26 µM | GI50 [11] 0.473 µM | GI50 [12] 5.75 µM | GI50 [13] 6.89 µM | GI50 [14] 3.85 µM | GI50 [15] 4.22 µM | GI50 [16] 5.34 µM | GI50 [17] 7.92 µM | GI50 [18] 4.82 µM | GI50 [19] 4.65 µM | GI50 [21] 6.3 µM | GI50 [23] 5.26 µM | GI50 [24] 6.1 µM | GI50 [25] 7.34 µM | GI50 [26] 5.84 µM | GI50 [27] 4.86 µM | GI50 [29] 4.94 µM | GI50 [30] 4.12 µM | GI50 [31] 8.91 µM | GI50 [32] 9.4 µM | GI50 [33] 4.63 µM | GI50 [34] 5.83 µM | GI50 [35] 0.862 µM | GI50 [37] 8.66 µM | GI50 [38] 5.19 µM | GI50 [39] 4.4 µM | GI50 [40] 6.01 µM | GI50 [41] 7.1 µM | GI50 [42] 6.72 µM | GI50 [43] 5.43 µM | GI50 [44] 6.53 µM | GI50 [45] 6.2 µM | GI50 [46] 5.38 µM | GI50 [47] > 7.82 µM | GI50 [48] 3.95 µM | GI50 [49] 1.95 µM | GI50 [51] 8.56 µM | GI50 [52] 14.8 µM | GI50 [53] 5.92 µM | GI50 [54] 6.54 µM | GI50 [55] 5.77 µM | GI50 [56] 5.8 µM | GI50 [57] 0.647 µM | GI50 [58] 4.77 µM

CC(=O)C(C)CCOC1(C)OCCC1C (centres undefined)
> 100 µM: TGI [1] | TGI [2] | TGI [3] | TGI [4] | TGI [5] | TGI [6] | TGI [7] | TGI [8] | TGI [9] | TGI [10] | TGI [11] | TGI [12] | TGI [13] | TGI [14] | TGI [15] | TGI [16] | TGI [17] | TGI [18] | TGI [19] | TGI [20] | TGI [21] | TGI [22] | TGI [23] | TGI [24] | TGI [25] | TGI [26] | TGI [27] | TGI [28] | TGI [29] | TGI [30] | TGI [31] | TGI [32] | TGI [33] | TGI [34] | TGI [35] | TGI [36] | TGI [37] | TGI [38] | TGI [39] | TGI [40] | TGI [41] | TGI [42] | TGI [43] | TGI [44] | TGI [45] | TGI [46] | TGI [47] | TGI [48] | TGI [49] | TGI [50] | TGI [51] | TGI [52] | TGI [53] | TGI [54] | TGI [55] | TGI [56] | TGI [57] | TGI [58]
